# Reference: patent publication US10428026B2, “Pyridinone dicarboxamide for use as bromodomain inhibitors” (GlaxoSmithKline Intellectual Property (No.2) Limited, priority 2015, dated 2019)
# How the values were obtained:
# [1] = biological target: T1, BRD4 BD1 (Homo sapiens, UniProt O60885, Y390A); test: BRD4 BD1 TR-FRET competition assay; assay type: binding; conditions: mean of n determinations; read-out: mean pIC50 in the BRD4 BD1 TR-FRET assay (converted)
# T1 construct: BRD4 (1-477) (Y97A) and (Y390A); made in house; host or cells: E. coli (pET15b vector)
# [2] = biological target: T2, BRD4 BD2 (Homo sapiens, UniProt O60885, Y97A); test: BRD4 BD2 TR-FRET competition assay; assay type: binding; conditions: for fold selective for BRD4 BD2 over BRD4 BD1: derived from the log unit selectivity; for selectivity for BRD4 BD2 over BRD4 BD1 (BRD4 BD2 pIC50 - BRD4 BD1 pIC50): in at least one of the TR-FRET assays; for IC50: mean of n determinations, read-out: mean pIC50 in the BRD4 BD2 TR-FRET assay (converted)
# T2 construct: BRD4 (1-477) (Y97A) and (Y390A); made in house; host or cells: E. coli (pET15b vector)
# [3] = test system: BET family (BRD2, BRD3, BRD4 and BRDT) mutant tandem bromodomain proteins; test: Fluorescence Polarisation binding of Reference Compound X to single and double mutant tandem BET proteins; set-up: species or system Human
# Procedure: The competition of the compounds of formula (I) with Reference Compound X for binding to the BET family (BRD2, BRD3, BRD4 and BRDT) was assessed using protein truncates spanning both bromodomain 1 (BD1) and bromodomain 2 (BD2). In order to monitor differential binding to either BD1 or BD2, single residue mutations of key tyrosines to alanine were made in the acetyl lysine binding pockets. To validate this approach, a double residue mutant tandem domain protein was produced for each of the BET family members. Utilising a Fluorescence Polarisation approach, binding affinities for each of the single and double mutants for Reference Compound X were determined. […] The affinities of the single mutated bromdomain tandem proteins for Reference Compound X were equi-potent with the corresponding non-mutated BET protein. […] In the TR-FRET competition assay, Reference Compound X is used at a concentration that is equivalent to the Kd for the non-mutated bromodomain, which ensures that no binding at the mutated bromodomain is detected. […]
SMILES,IC50 [1] [µM],fold selective for BRD4 BD2 over BRD4 BD1 [2],selectivity for BRD4 BD2 over BRD4 BD1 (BRD4 BD2 pIC50 - BRD4 BD1 pIC50) [2] [log unit],IC50 [2] [µM],"fold reduction in Kd (affinity) of double mutant tandem proteins for Reference Compound X ([3]; double residue mutant versus non mutated, wild type tandem BET proteins) [fold]",fold change of Kd of the interaction between the mutated bromodomain and Reference Compound X ([3]; single mutations of Tyrosine to Alanine) [fold]
"CNC(=O)c1cc(C(=O)N[C@H]2C[C@@H]2C)cn(Cc2ccccc2)c1=O (single isomer, unassigned) [Example 102]",7.94,at least 100 fold,2.5,0.0251,,
"CNC(=O)c1cc(C(=O)N[C@H]2C[C@@H]2C)cn(Cc2cccc(OCCO)c2)c1=O [Example 153, 1-(3-(2-Hydroxyethoxy)benzyl)-N3-methyl-N5-((1S,2S)-2-methylcyclopropyl)-2-oxo-1,2-dihydropyridine-3,5-dicarboxamide]",31.6,at least 100 fold,2.7,0.0631,,
COc1ccc2c(c1)C(c1ccc(Cl)cc1)=N[C@@H](CC(=O)NCCCCCNC(=O)CCCCCC1(C)/C(=C/C=C/C=C/C3=[N+](CCCCS(=O)(=O)O)c4ccc(S(=O)(=O)O)cc4C3(C)C)N(CCCCS(=O)(=O)[O-])c3ccc(S(=O)(=O)O)cc31)c1nnc(C)n1-2 (stereo partly shown) [Reference Compound X],,,,,> 1000,> 1000
